Patent publication US20190255073A1, “ESTERS OF 3-POLYAMINE DERIVATIVES OF BILE ACIDS FOR THE TREATMENT OF INFECTIONS” (VIRBAC, priority 2016, published 2019)
In brackets after ≈: the same amount, converted by molar mass. Like-named read-outs stand apart in the source and are kept apart here.

What was measured:
[1] = tested on: P. aeruginosa (1051575); experiment: MIC determination by microplate dilution, P. aeruginosa animal strain; format: cell-based, Pseudomonas aeruginosa; details: Pseudomonas aeruginosa, Gram-negative, Mueller-Hinton medium, 24 h, 37° C.
Method in brief: (§1)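 Bacteria were precultured 24 h at 37 °C, standardised by OD600 and seeded into Mueller-Hinton broth at OD 0.01 per well. Test compounds, from a 5 mg/mL DMSO/methanol stock, were diluted two-fold across the plate. After 24 h humid incubation at 37 °C, absorbance at 620 nm gave the MIC.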

[2] = tested on: P. aeruginosa (1051575); experiment: Potentiation of ampicillin activity; format: cell-based, Pseudomonas aeruginosa; details: concentration of compound required with ampicillin 4 μg/mL
Experimental: (§2) This method requires the use of a 96-well plate: 100 μL of a liquid culture medium are placed in each well and then seeded with the microbial suspension prepared previously. The required volume to be seeded is calculated for an OD of 0.01, which corresponds to about 5×10^6 bacteria in each well. In this plate, the first line corresponds to a negative control (200 μL of sterile culture medium in each well), the second line corresponds to a positive control (100 μL of sterile culture medium+100 μL of the bacterial suspension), and the third line contains 192 μL of culture medium; 8 μL of compound of formula (I) to be tested are placed in each well. […] 92 μL of bacterial suspension are then added to lines 3 to 8. […] After 24 hours of incubation at 37° C., 40 μL of nitro tetrazolium iodide are added to each well to reveal the presence of live bacteria by staining the medium pink.
(§3) The procedure is identical to that indicated in Example 5 above. […]
(§4) The results are given in table V. They indicate the concentration of compound of formula (I) required to be able to restore the activity of the antibiotic under consideration.

[3] = tested on: C. albicans; experiment: Antifungal activity, cascade microdilution, C. albicans; format: cell-based, Candida albicans; details: Candida albicans, 24 h, read-out: IC50 (μg/mL) C. albicans
[4] = tested on: E. coli ATCC28922; experiment: MIC determination by microplate dilution, E. coli human strain; format: cell-based, Escherichia coli; details: Escherichia coli, ATCC28922, Gram-negative, Mueller-Hinton medium, 24 h, 37° C.
Method in brief: as §1

[5] = tested on: S. aureus (340); experiment: MIC determination by microplate dilution, S. aureus animal strain; format: cell-based, Staphylococcus aureus; details: Staphylococcus aureus, Gram-positive, Mueller-Hinton medium, 24 h, 37° C.
Method in brief: as §1

[6] = tested on: S. intermedius (1051997); experiment: MIC determination by microplate dilution, S. intermedius animal strain; format: cell-based, Staphylococcus intermedius; details: Staphylococcus intermedius, Gram-positive, Mueller-Hinton medium, 24 h, 37° C.
Method in brief: as §1

[7] = tested on: P. aeruginosa (1051575); experiment: Potentiation of erythromycin activity; format: cell-based, Pseudomonas aeruginosa; details: concentration of compound required with erythromycin 2 μg/mL
Experimental: This method requires the use of a 96-well plate: 100 μL of a liquid culture medium are placed in each well and then seeded with the microbial suspension prepared previously. The required volume to be seeded is calculated for an OD of 0.01, which corresponds to about 5×10^6 bacteria in each well. In this plate, the first line corresponds to a negative control (200 μL of sterile culture medium in each well), the second line corresponds to a positive control (100 μL of sterile culture medium+100 μL of the bacterial suspension), and the third line contains 192 μL of culture medium; 8 μL of compound of formula (I) to be tested are placed in each well. Thereafter, a cascade dilution is performed from this line. […] (1 mg dissolved in 20 mL) are then added to each well of the lines 3 to 8 to obtain a final antibiotic concentration of 2 μg/mL. 92 μL of bacterial suspension are then added to lines 3 to 8. […] After 24 hours of incubation at 37° C., 40 μL of nitro tetrazolium iodide are added to each well to reveal the presence of live bacteria by staining the medium pink.
The procedure is identical to that indicated in Example 5 above. 8 μL of an antibiotic solution under consideration (1 mg dissolved in 20 mL) are added to obtain a final antibiotic concentration of 2 μg/mL instead of 8 μL of a doxycycline solution.
as §4

[8] = tested on: E. faecalis ATCC29212; experiment: MIC determination by microplate dilution, E. faecalis human strain; format: cell-based, Enterococcus faecalis; details: Enterococcus faecalis, ATCC29212, Gram-positive, Mueller-Hinton medium, 24 h, 37° C.
Method in brief: as §1

[9] = tested on: P. aeruginosa (1051575); experiment: Potentiation of chloramphenicol activity; format: cell-based, Pseudomonas aeruginosa; details: concentration of compound required with chloramphenicol 4 μg/mL
Experimental: as §2, §3, §4

[10] = tested on: P. aeruginosa (1051575); experiment: Potentiation of the doxycycline activity at 2 μg/mL; format: cell-based, Pseudomonas aeruginosa; details: for MIC - P. aeruginosa (1051575): content of compound of formula (I) to restore the doxycycline activity (at 2 μg/mL): in combination with doxycycline 2 μg/mL, 24 h, 37°
[11] = tested on: CHO-K1 cells; experiment: WST1 cytotoxicity test on CHO-K1 cells; format: cell-based, Chinese hamster; details: Cricetulus griseus
Method in brief: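 CHO-K1 cells seeded 24 h, then exposed to increasing compound concentrations in duplicate for 24 h at 37 °C, 5% CO2. Viability by WST-1 reduction (20 min, 37 °C), absorbance at 450 nm. IC50 = concentration reducing viability by 50%, from nonlinear regression of dose-response.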

[12] = tested on: S. aureus ATCC25923; experiment: MIC determination by microplate dilution, S. aureus human strain; format: cell-based, Staphylococcus aureus; details: Staphylococcus aureus, ATCC25923, Gram-positive, Mueller-Hinton medium, 24 h, 37° C.
Method in brief: as §1

[13] = tested on: E. coli (1956); experiment: MIC determination by microplate dilution, E. coli animal strain; format: cell-based, Escherichia coli; details: Escherichia coli, Gram-negative, Mueller-Hinton medium, 24 h, 37° C.
Method in brief: as §1

[14] = tested on: P. aeruginosa ATCC27853; experiment: MIC determination by microplate dilution, P. aeruginosa human strain; format: cell-based, Pseudomonas aeruginosa; details: Pseudomonas aeruginosa, ATCC27853, Gram-negative, Mueller-Hinton medium, 24 h, 37° C.
Method in brief: as §1

[15] = tested on: A. niger; experiment: Antifungal activity, cascade microdilution, A. niger; format: cell-based; details: Aspergillus niger, 24 h, read-out: IC50 (μg/mL) A. niger
Experimental: 1) Preparation of the Preculture
A negative control (2 mL of sterile Mueller Hinton MH culture medium)
A positive control (1980 μL of culture medium+20 μL of yeast or fungal suspension) from a thawed biological strain (the biological strains are stored at −80° C. in glycerol).
The tubes were incubated at 37° C. for 24 hours at 100 rpm.
The chemical compounds to be tested were prepared at a concentration of 5 mg/mL (in the form of the hydrochloride in water).
2) Preparation of the Microplate for the Determination of the Minimum Inhibitory Concentration (MIC)
The MIC is obtained by using the cascade microdilution method in sterile 96-well plates. 100 μL of MH culture medium are first placed in each well, and 8 μL of the solution (5 mg/mL) of the test molecule are then added to the first wells. The volume is made up with medium to obtain a total volume of 200 μL in these wells. Serial dilution is then performed by taking 100 μL from the first well, and so on successively from well to well. 100 μL of inoculate containing 2-6×10^5 CFU of yeast or fungi are then added to each well. Certain wells are reserved for positive and negative controls.
3) Reading of the Results
After incubation, an optical density (OD) reading was taken in an iEMS plate spectrophotometer at 620 nm. Calculation of the minimum inhibitory concentration (MIC) was performed.

[16] = tested on: P. aeruginosa (PAO1); experiment: MIC of doxycycline on P. aeruginosa PAO1; format: cell-based; details: Pseudomonas aeruginosa; doxycycline alone; Gram-negative strain P. aeruginosa (PAO1)
Experimental: On the Gram-negative strain of P. aeruginosa (PAO1), doxycycline has an MIC of 40 μg/mL.

[17] = CHO-K1, 24 h, read-out: IC50 (μg/mL) CHO
[18] = CHO-K1, read-out: IC50 (μg/mL) CHO

MIC [16] [µg/mL]	Structure (SMILES)	MIC [1] [µg/mL]	MIC P. aeruginosa (1051575), compound + ampicillin [2] [µg/mL]	IC50 [3] [µg/mL]	MIC [4] [µg/mL]	MIC [5] [µg/mL]	MIC [6] [µg/mL]	MIC P. aeruginosa (1051575), compound + erythromycin [7] [µg/mL]	MIC [8] [µg/mL]	MIC P. aeruginosa (1051575), compound + chloramphenicol [9] [µg/mL]	synergism with doxycycline ([10]; administered with doxycycline at 2 μg/mL)	MIC - P. aeruginosa (1051575): content of compound of formula (I) to restore the doxycycline activity (at 2 μg/mL) [10] [µg/mL]	IC50 [11, 17] [µg/mL]	IC50 [11, 18] [µg/mL]	MIC [12] [µg/mL]	MIC [13] [µg/mL]	MIC [14] [µg/mL]	IC50 [15] [µg/mL]
–	CC(C)OC(=O)CC[C@@H](C)[C@H]1CCC2C3C(CC[C@@]21C)[C@@]1(C)CC[C@H](NCCCNCCCN)CC1C[C@H]3O (stereo partly drawn) [(11), isopropyl 3β-norspermidinochenodeoxycholate]	14 (≈ 25.6 µM)	56	4 (≈ 7.3 µM)	14 (≈ 25.6 µM)	2 (≈ 3.65 µM)	2 (≈ 3.65 µM)	28	3.5 (≈ 6.39 µM)	2	noteworthy synergism	1	140 (≈ 256 µM)	140 (≈ 256 µM)	7 (≈ 12.8 µM)	–	–	–
–	CC(C)OC(=O)CC[C@@H](C)[C@H]1CCC2C3CCC4C[C@@H](NCCN(CCN)CCN)CC[C@]4(C)C3C[C@H](O)[C@@]21C (stereo partly drawn) [(29), isopropyl 3β-(tris(2-aminoethyl)amine)deoxycholate]	56 (≈ 99.5 µM)	56	–	14 (≈ 24.9 µM)	14 (≈ 24.9 µM)	14 (≈ 24.9 µM)	56	28 (≈ 49.7 µM)	7	–	4	–	–	28 (≈ 49.7 µM)	28 (≈ 49.7 µM)	56 (≈ 99.5 µM)	–
–	CC(C)OC(=O)CC[C@@H](C)[C@H]1CCC2C3C(C[C@H](O)[C@@]21C)[C@@]1(C)CC[C@H](NCCCN(C)CCCN)CC1C[C@H]3O (stereo partly drawn) [(36), isopropyl 3β-(bis(3-aminopropyl)methylamine)cholate]	58 (≈ 100 µM)	58	–	58 (≈ 100 µM)	29 (≈ 50.2 µM)	14 (≈ 24.2 µM)	58	58 (≈ 100 µM)	8	–	4	–	–	29 (≈ 50.2 µM)	58 (≈ 100 µM)	58 (≈ 100 µM)	–
–	COC(=O)CC[C@@H](C)[C@H]1CCC2C3C(CC[C@@]21C)[C@@]1(C)CC[C@H](NCCCN(CCCN)CCCN)CC1C[C@H]3O (stereo partly drawn) [(38), methyl 3β-(tris(3-aminopropyl)amine)chenodeoxycholate]	14 (≈ 24.3 µM)	–	115 (≈ 199 µM)	28 (≈ 48.5 µM)	14 (≈ 24.3 µM)	29 (≈ 50.3 µM)	–	3.5 (≈ 6.07 µM)	–	–	2	17 (≈ 29.5 µM)	17 (≈ 29.5 µM)	14 (≈ 24.3 µM)	14 (≈ 24.3 µM)	28 (≈ 48.5 µM)	4 (≈ 6.93 µM)
–	CC(C)OC(=O)CC[C@@H](C)[C@H]1CCC2C3C(CC[C@@]21C)[C@@]1(C)CC[C@H](NCCN(CCN)CCN)CC1C[C@H]3O (stereo partly drawn) [(40), isopropyl 3β-(tris(2-aminoethyl)amine)chenodeoxycholate]	–	28	7 (≈ 12.4 µM)	14 (≈ 24.9 µM)	14 (≈ 24.9 µM)	7 (≈ 12.4 µM)	56	14 (≈ 24.9 µM)	4	–	4	–	140 (≈ 249 µM)	14 (≈ 24.9 µM)	28 (≈ 49.7 µM)	56 (≈ 99.5 µM)	–
–	CC(C)OC(=O)CC[C@@H](C)[C@H]1CCC2C3C(CC[C@@]21C)[C@@]1(C)CC[C@H](NCCCNCCCNCCCN)CC1C[C@H]3O (stereo partly drawn) [Compound (10), isopropyl 3β-norsperminochenodeoxycholate]	4 (≈ 6.61 µM)	–	2 (≈ 3.31 µM)	16 (≈ 26.4 µM)	2 (≈ 3.31 µM)	0.8 (≈ 1.32 µM)	–	8 (≈ 13.2 µM)	–	–	2	85 (≈ 141 µM)	85 (≈ 141 µM)	4 (≈ 6.61 µM)	10 (≈ 16.5 µM)	–	4 (≈ 6.61 µM)
40	C[C@H]1c2cccc(O)c2C(=O)C2=C(O)[C@]3(O)C(=O)C(C(N)=O)=C(O)[C@@H](N(C)C)[C@@H]3[C@@H](O)[C@@H]21 [doxycycline]	–	–	–	–	–	–	–	–	–	–	–	–	–	–	–	–	–
